Assay results from patent US20210085630A1, “PHARMACEUTICAL COMPOSITION AND USE THEREOF IN PREPARING DRUG FOR TREATING TUMOR MULTI-DRUG RESISTANCE” (SICHUAN JIUZHANG BIOLOGICAL SCIENCE AND TECHNOLOGY CO., LTD., priority 2018, published 2021).
Converted amounts (≈) assume the structure as drawn. Where a name gives a salt, the structure may show the parent alone. Marks after values point to notes of the source that are not given here. Blank lines part the entries; values can stand above or below the molecule they belong to.

Legend:
[1] = tested on: drug-resistant A375 melanoma cell lines; test: MTT: IC50 of dacarbazine against drug-resistant A375 cells and drug-resistant index; assay type: cell-based, human
Procedure: A375 melanoma cell lines were exposed to dacarbazine (400 μg/ml) for 3 months, and centrifuged, to culture dacarbazine-resistant A375 cells. The cells were observed every day, and taken through 3 passages for about 3 days, to ensure cell viability.
(§1) Above-mentioned cell lines and drug-resistant cell lines in the logarithmic growth phase were selected, the cell concentration was adjusted to 8×10^3 cells/well, and then cells were seeded in a 96-well plate. For the experiment, there were three groups: blank group, control group and dacarbazine group. In the blank group, only medium was added, without inoculating cells; in the control group, medium was added, and cells were inoculated; in the dacarbazine group, medium was added, cells were inoculated, and then dacarbazine was added at different concentrations. The plates were placed in an incubator and incubated for 48 h, then 5 mg/ml MTT (20 μl) was added to each well, and the plate was further incubated for 4 h.
Drug-resistant index=IC50 value of drug-resistant cells/IC50 value of sensitive cells

[2] = tested on: dacarbazine-resistant B16 melanoma; test: Tumor weight and inhibition rate, transplanted dacarbazine-resistant B16 melanoma; assay type: in vivo; settings: dacarbazine-resistant B16 melanoma mice; test drug 30 mg/kg i.p. once a day 5 days, then dacarbazine 60 mg/kg every other day; positive drug dacarbazine 60 mg/kg
Procedure: B16 melanoma cell lines were induced by the increased gradient concentration of dacarbazine, and established by clone screening and cultured without drug before the experiment.
(§2) After the drug was removed from the drug-resistant cell lines, the cell concentration was adjusted to 1×10^7/ml with the culture medium. 1×10^7/ml of cells were subcutaneously injected into the right armpit of mice, 0.1 ml per mouse.
(§3) After the average diameter of tumor reached […], the mice were randomly divided into test drug group 1, test drug group 2, test drug group 3, test drug group 4, test drug group 5, test drug group 6, positive drug group, and negative group, respectively.
(§4) Test drug group: the test drug group was first intraperitoneally injected, once a day, 30 mg/kg/time, for 5 consecutive days; administration was stopped, and the positive drug was given by intraperitoneal injection on the next day; wherein the positive drug dacarbazine was administrated once every other day, 60 mg/kg/time; wherein the positive drug gemcitabine was given once every other day, 300 mg/kg/time.
(§5) Positive drug group: positive drug dacarbazine was given once every other day, 60 mg/kg/time; positive drug gemcitabine was given once every other day, 300 mg/kg/time.
(§6) Negative group: normal saline was intraperitoneally injected, once a day, for 15 consecutive days.
(§7) After completion of administration, the experiment was stopped, and the mice were killed by cervical dislocation and weighed. The tumor was stripped and weighed, to calculate the tumor inhibition rate.

PD-1/PD-L1 [3] = test: PD-1/PD-L1 expression rate (immunohistochemical SP method), drug-resistant B16 melanoma tumor tissue; assay type: in vivo; settings: transplanted tumor tissues of drug-resistant B16 melanoma in mice, Example 3 regimen
Source text: (§8) The positive expression rate of PD-1/PD-L1 in tumor tissues was detected by immunohistochemical SP method.

[4] = tested on: CD4+T and CD8+T lymphocytes; test: Number of CD4+T and CD8+T cells (immunofluorescence), drug-resistant B16 melanoma transplanted tumor; assay type: in vivo; settings: transplanted tumor of drug-resistant B16 melanoma in mice, average of 6 high power fields
Procedure: (§9) The number of CD4+T and CD8+T lymphocytes was analyzed by immunofluorescence staining, and the average number of CD4+T and CD8+T cells infiltrated in 6 high power fields was counted.

[5] = tested on: multi-drug resistant Lewis lung cancer; test: Tumor weight and inhibition rate, transplanted multi-drug resistant Lewis lung cancer; assay type: in vivo, mice; settings: for Tumor weight / Tumor-inhibition rate (%): multi-drug resistant Lewis lung cancer mice, test drug 30 mg/kg i.p. 5 days, then gemcitabine 300 mg/kg or dacarbazine 60 mg/kg every other day
Procedure: Lewis lung cancer cell lines were induced by the increased gradient concentration of dacarbazine and gemcitabine, and established by clone screening, then cultured without drug before the experiment.
as §2, §3, §4, §5, §6, §7

PD-1/PD-L1 [6] = test: PD-1/PD-L1 expression rate in transplanted tumor tissues, multidrug resistance model; assay type: in vivo; settings: transplanted tumor tissues of B16 melanoma mice with multidrug resistance (as titled), Example 5 regimen
Source text: as §8

[7] = tested on: CD4+T and CD8+T lymphocytes; test: Number of CD4+T and CD8+T lymphocytes in transplanted tumor of multidrug-resistant Lewis lung cancer mice; assay type: in vivo; settings: average of 6 high power fields
Procedure: as §9

[8] = tested on: drug-resistant A549 lung cancer cell lines; test: MTT: IC50 of gemcitabine against drug-resistant A549 cells and drug-resistant index; assay type: cell-based, human
Procedure: A549 lung cancer cell lines were exposed to gemcitabine (2000 μg/ml) for 3 months, and centrifuged, to culture gemcitabine-resistant A549 cells. The cells were observed every day, and taken through 3 passages for about 3 days, to ensure cell viability.
as §1, with “gemcitabine” for “dacarbazine”, “h. […] Drug-resistant index=IC50 value of drug-resistant cells/IC50 value of sensitive cells” for “h.”

[9] = tested on: gemcitabine-resistant Lewis lung cancer; test: Tumor weight and inhibition rate, transplanted gemcitabine-resistant Lewis lung cancer; assay type: in vivo; settings: gemcitabine-resistant Lewis lung cancer mice; test drug 30 mg/kg i.p. once a day 5 days, then gemcitabine 300 mg/kg every other day; positive drug gemcitabine 300 mg/kg
Procedure: Lewis lung cancer cell lines were induced by the increased gradient concentration of gemcitabine, and established by clone screening and cultured without drug before the experiment.
as §2, §3, §4, §5, §6, §7

PD-1/PD-L1 [10] = test: PD-1/PD-L1 expression rate (immunohistochemical SP method), drug-resistant Lewis lung cancer tumor tissue; assay type: in vivo; settings: transplanted tumor tissues of drug-resistant Lewis lung cancer in mice, Example 3 regimen
Source text: as §8

[11] = tested on: CD4+T and CD8+T lymphocytes; test: Number of CD4+T and CD8+T cells (immunofluorescence), drug-resistant Lewis lung cancer transplanted tumor; assay type: in vivo; settings: transplanted tumor of drug-resistant Lewis lung cancer in mice, average of 6 high power fields
Procedure: as §9

B16 melanoma cell lines = test: Establishment of Opdivo-resistant tumor model, tumor volume over time, B16 melanoma; assay type: in vivo; settings: B16 melanoma mice, Opdivo 30 mg/kg i.p. every other day
Procedure: (§10) The concentration of cell lines was adjusted to 1×10^7/ml with the culture medium. 1×10^7/ml of cells were subcutaneously injected into the right armpit of mice, 0.1 ml per mouse.

[12] = tested on: Lewis lung cancer cell lines; test: Establishment of Opdivo-resistant tumor model, tumor volume over time, Lewis lung cancer; assay type: in vivo; settings: Lewis lung cancer mice, Opdivo 30 mg/kg i.p. every other day
Procedure: as §10

[13] = tested on: Opdivo-resistant B16 melanoma; test: Antitumor effect (tumor volume, weight, inhibition rate) in Opdivo-resistant B16 melanoma mice; assay type: in vivo
Procedure: as §10
(§11) The model mice were randomly divided into groups, eight for one group, and included test drug group 1, test drug group 2, test drug group 3, test drug group 4, positive drug Opdivo group, single drug chlorogenic acid group, test drug 1+Opdivo group, test drug 2+Opdivo group, test drug 3+Opdivo group, test drug 4+Opdivo group, and negative group, respectively.
(§12) Test drug group: from the second day after stopping administration to the model, the group received drug by intraperitoneal injection, once a day, 30 mg/kg.
(§13) Single drug group: from the second day after stopping administration to the model, the group received drug by intraperitoneal injection, once a day, 30 mg/kg.
(§14) Test drug+Opdivo group: from the second day after stopping administration to the model, the group received the test drug by intraperitoneal injection, once a day, and the test drug was stopped after administrating for 5 consecutive days; on the next day, Opdivo was intraperitoneally injected, once every other day, with the dosage of 30 mg/kg.
(§15) Positive drug group: once every other day, 30 mg/kg.
(§16) Negative group: normal saline was intraperitoneally injected, once a day, the same amount of saline.
(§17) Before each administration, the tumor volume was measured, and the experiment was stopped when the average tumor volume of negative group was greater than 1.5 cm^3.
as §7

[14] = tested on: Opdivo-resistant Lewis lung cancer; test: Antitumor effect (tumor volume, weight, inhibition rate) in Opdivo-resistant Lewis lung cancer mice; assay type: in vivo
Procedure: as §10, §11, §12, §13, §14, §15, §16, §17, §7

PD-1/PD-L1 [15] = test: PD-1/PD-L1 expression rate in tumor tissues of Opdivo-resistant B16 melanoma mice; assay type: in vivo; settings: tumor tissues of drug-resistant (Opdivo) B16 melanoma mice
Source text: as §8

PD-1/PD-L1 [16] = test: PD-1/PD-L1 expression rate in tumor tissues of Opdivo-resistant Lewis lung cancer mice; assay type: in vivo; settings: tumor tissues of drug-resistant (Opdivo) Lewis lung cancer mice
Source text: as §8

[17] = tested on: CD4+T and CD8+T lymphocytes; test: Number of CD4+T and CD8+T cells in Opdivo-resistant B16 melanoma mice; assay type: in vivo; settings: drug-resistant (Opdivo) B16 melanoma mice, average of 6 high power fields
Procedure: as §9

[18] = tested on: CD4+T and CD8+T lymphocytes; test: Number of CD4+T and CD8+T cells in Opdivo-resistant Lewis lung cancer mice; assay type: in vivo; settings: drug-resistant (Opdivo) Lewis lung cancer mice, average of 6 high power fields
Procedure: as §9

[19] = 30 mg/kg i.p. once a day, + Opdivo groups: test drug 5 days, then Opdivo 30 mg/kg every other day
[20] = 30 mg/kg i.p., + Opdivo groups 30 + 30 mg/kg

IC50 ([1]; Homo sapiens, A-375, dacarbazine against drug-resistant A375 melanoma cell lines, MTT, 48 h, read-out: IC50 Concentration): 560 mg/L
Molecule: CN(C)/N=N/c1[nH]cnc1C(N)=O [Dacarbazine, 5-(3,3-dimethyl-1-triazenyl)-4-carboxamideimidazolium citrate, reference compound]
Drug-resistant index ([1]; IC50 of drug-resistant cells/IC50 of sensitive cells, A375): 6.22
Tumor inhibition rate (%) [2]: 4.55%
Tumor weight [2]: 2.52 ± 0.77 g
Expression rate of PD-1/PD-L1, Positive PD-L1 (PD-1/PD-L1 [3]): 72.51%
CD4 + T cells (number) [4]: 63.67 ± 5.83
CD8 + T cells (number) [4]: 91.23 ± 3.84
Tumor weight [5]: 2.33 ± 0.52 g
Tumor-inhibition rate (%) [5]: 1.27%
Expression rate of PD-1/PD-L1, Positive PD-L1 (PD-1/PD-L1 [6]): 72.51%
CD4 + T cells (number) [7]: 74.52 ± 7.38
CD8 + T cells (number) [7]: 123.74 ± 12.85

IC50 ([8]; Homo sapiens, gemcitabine against drug-resistant A549 lung cancer cell lines, MTT, 48 h, read-out: IC50 Concentration): 3620 mg/L (≈ 13.8 mM)
Molecule: Nc1ccn([C@@H]2O[C@H](CO)[C@@H](O)C2(F)F)c(=O)n1 [Gemcitabine, gemcitabine, reference compound]
Drug-resistant index ([8]; IC50 of drug-resistant cells/IC50 of sensitive cells, A549): 4.63
Tumor inhibitory rate (%) [9]: 5.24%
Tumor weight (g) [9]: 2.17 ± 0.89 ^ g
Expression rate of PD-1/PD-L1, Positive PD-L1 (PD-1/PD-L1 [10]): 78.93%
CD4 + T cells (number) [11]: 82.16 ± 1.42
CD8 + T cells (number) [11]: 112.53 ± 4.28
Tumor weight [5]: 2.27 ± 0.38 g
Tumor-inhibition rate (%) [5]: 3.81%
inhibitory effect on the tumor (in words) ([5]; multidrug-resistant Lewis lung cancer mice, positive drug groups): don't have obvious inhibitory effect
Expression rate of PD-1/PD-L1, Positive PD-L1 (PD-1/PD-L1 [6]): 74.35%
CD4 + T cells (number) [7]: 77.69 ± 8.96
CD8 + T cells (number) [7]: 121.08 ± 10.32

Molecule: Opdivo: human programmed death receptor-1 (PD-1) blocking antibody; PD-1 inhibitor
Tumor volume, Model group (cm^3) (B16 melanoma cell lines; 2 d after inoculation): 0.00 ± 0.000 ** cm^3
Tumor volume, Model group (cm^3) (B16 melanoma cell lines; 4 d after inoculation): 0.084 ± 0.047 ** cm^3
Tumor volume, Model group (cm^3) (B16 melanoma cell lines; 6 d after inoculation): 0.106 ± 0.043 ** cm^3
Tumor volume, Model group (cm^3) (B16 melanoma cell lines; 8 d after inoculation): 0.128 ± 0.062 ** cm^3
Tumor volume, Model group (cm^3) (B16 melanoma cell lines; 10 d after inoculation): 0.179 ± 0.147 ** cm^3
Tumor volume, Model group (cm^3) (B16 melanoma cell lines; 12 d after inoculation): 0.286 ± 0.116 ** cm^3
Tumor volume, Model group (cm^3) (B16 melanoma cell lines; 14 d after inoculation): 0.881 ± 0.204 cm^3
Tumor volume, Model group (cm^3) ([12]; 4 d after inoculation): 0.00 ± 0.000 ** cm^3
Tumor volume, Model group (cm^3) ([12]; 6 d after inoculation): 0.073 ± 0.052* cm^3
Tumor volume, Model group (cm^3) ([12]; 8 d after inoculation): 0.098 ± 0.075** cm^3
Tumor volume, Model group (cm^3) ([12]; 10 d after inoculation): 0.121 ± 0.101** cm^3
Tumor volume, Model group (cm^3) ([12]; 12 d after inoculation): 0.164 ± 0.084** cm^3
Tumor volume, Model group (cm^3) ([12]; 14 d after inoculation): 0.226 ± 0.113** cm^3
Tumor volume, Model group (cm^3) ([12]; 16 d after inoculation): 0.464 ± 0.154* cm^3
Tumor volume, Model group (cm^3) ([12]; 18 d after inoculation): 0.984 ± 0.236 cm^3
continuous treatment effect / effect on tumor volume control (in words) [13]: not obvious
Tumor volume (cm^3) [13, 19]: 1.793 ± 0.842 cm^3
Tumor inhition rate (%) [13, 20]: 1.41%
Tumor weight [13, 20]: 2.79 ± 1.13 g
continuous treatment effect / effect on tumor volume control (in words) [14]: not obvious
Tumor volume (cm^3) [14, 19]: 1.616 ± 0.772 cm^3
Tumor inhibition rate (%) [14, 20]: 2.38%
Tumor weight [14, 20]: 2.52 ± 0.83 g
Expression rate of PD-1/PD-L1, Positive PD-L1 (PD-1/PD-L1 [15]): 85.87%
Expression rate of PD-1/PD-L1, Positive PD-L1 (PD-1/PD-L1 [16]): 72.77%
CD4 + T cells (number) [17]: 74.63 ± 6.35
CD8 + T cells (number) [17]: 88.61 ± 5.82
CD4 + T cells (number) [18]: 64.22 ± 7.74
CD8 + T cells (number) [18]: 117.81 ± 7.99
